In patent US10125138B2, “Triazolotriazinone derivatives having activity a s herbicides” (Syngenta Participations AG, priority 2015, dated 2018):

How the values were obtained:
Assay type in all cases: in vivo
Conditions in all cases: 1000 g/h, evaluated after 13 days, five point scale
[1] = system: Lolium perenne (LOLPE); test: Post-emergence glasshouse herbicide test, Lolium perenne
Protocol: (§1) Seeds of a variety of test species are sown in standard soil in pots (Lolium perenne (LOLPE), Solanum nigrum (SOLNI), Amaranthus retoflexus (AMARE), Setaria faberi (SETFA), Echinochloa crus-galli (ECHCG), Ipomoea hederacea (IPOHE)). After cultivation for one day (pre-emergence) or after 8 days cultivation (post-emergence) under controlled conditions in a glasshouse (at 24/16° C., day/night; 14 hours light; 65% humidity), the plants are sprayed with an aqueous spray solution derived from the formulation of the technical active ingredient in acetone/water (50:50) solution containing 0.5% Tween 20 (polyoxyethelyene sorbitan monolaurate, CAS RN 9005-64-5). […] The test plants are then grown in a glasshouse under controlled conditions in a glasshouse (at 24/16° C., day/night; 14 hours light; 65% humidity) and watered twice daily. After 13 days for pre and post-emergence, the test is evaluated for the percentage damage caused to the plant. The biological activities are shown in the following table on a five point scale (5=80-100%; 4=60-79%; 3=40-59%; 2=20-39%; 1=0-19%).

[2] = system: Echinochloa crus-galli (ECHCG); test: Post-emergence glasshouse herbicide test, Echinochloa crus-galli
Protocol: as §1

[3] = system: Setaria faberi (SETFA); test: Post-emergence glasshouse herbicide test, Setaria faberi
Protocol: as §1

[4] = system: Amaranthus retoflexus (AMARE); test: Post-emergence glasshouse herbicide test, Amaranthus retoflexus
Protocol: as §1

[5] = system: Solanum nigrum (SOLNI); test: Post-emergence glasshouse herbicide test, Solanum nigrum
Protocol: (§2) Seeds of a variety of test species are sown in standard soil in pots (Lolium perenne (LOLPE), Solanum nigrum (SOLNI), Amaranthus retoflexus (AMARE), Setaria faberi (SETFA), Echinochloa crus-galli (ECHCG), Ipomoea hederacea (IPOHE)). After cultivation for one day (pre-emergence) or after 8 days cultivation (post-emergence) under controlled conditions in a glasshouse (at 24/16° C., day/night; 14 hours light; 65% humidity), the plants are sprayed with an aqueous spray solution derived from the formulation of the technical active ingredient in acetone/water (50:50) solution containing 0.5% Tween 20 (polyoxyethelyene sorbitan monolaurate, CAS RN 9005-64-5). Compounds are applied at 1000 g/h. The test plants are then grown in a glasshouse under controlled conditions in a glasshouse (at 24/16° C., day/night; 14 hours light; 65% humidity) and watered twice daily. After 13 days for pre and post-emergence, the test is evaluated for the percentage damage caused to the plant. The biological activities are shown in the following table on a five point scale (5=80-100%; 4=60-79%; 3=40-59%; 2=20-39%; 1=0-19%).

[6] = system: Ipomoea hederacea (IPOHE); test: Pre-emergence glasshouse herbicide test, Ipomoea hederacea
Protocol: as §1

[7] = system: Solanum nigrum (SOLNI); test: Pre-emergence glasshouse herbicide test, Solanum nigrum
Protocol: as §2

[8] = system: Lolium perenne (LOLPE); test: Pre-emergence glasshouse herbicide test, Lolium perenne
Protocol: as §1

[9] = system: Ipomoea hederacea (IPOHE); test: Post-emergence glasshouse herbicide test, Ipomoea hederacea
Protocol: as §1

[10] = system: Setaria faberi (SETFA); test: Pre-emergence glasshouse herbicide test, Setaria faberi
Protocol: as §1

[11] = system: Echinochloa crus-galli (ECHCG); test: Pre-emergence glasshouse herbicide test, Echinochloa crus-galli
Protocol: as §1

[12] = system: Amaranthus retoflexus (AMARE); test: Pre-emergence glasshouse herbicide test, Amaranthus retoflexus
Protocol: as §1

Structure (SMILES)	percentage damage caused to the plant, POST Application LOLPE [1]	percentage damage caused to the plant, POST Application ECHCG [2]	percentage damage caused to the plant, POST Application SETFA [3]	percentage damage caused to the plant, POST Application AMARE [4]	percentage damage caused to the plant, POST Application SOLNI [5]	percentage damage caused to the plant, PRE Application IPOHE [6]	percentage damage caused to the plant, PRE Application SOLNI [7]	percentage damage caused to the plant, PRE Application LOLPE [8]	percentage damage caused to the plant, POST Application IPOHE [9]	percentage damage caused to the plant, PRE Application SETFA [10]	percentage damage caused to the plant, PRE Application ECHCG [11]	percentage damage caused to the plant, PRE Application AMARE [12]
CCCn1nnnc1NC(=O)c1nn2cnn(-c3ccccc3C)c2nc1=O [Compound 1.028]	5 (5=80-100%)	5 (5=80-100%)	5 (5=80-100%)	5 (5=80-100%)	5 (5=80-100%)	5 (5=80-100%)	5 (5=80-100%)	5 (5=80-100%)	5 (5=80-100%)	5 (5=80-100%)	5 (5=80-100%)	5 (5=80-100%)
Cc1ccccc1-n1ncn2nc(C(=O)Nc3nnnn3C)c(=O)nc12 [Compound 1.030]	4 (4=60-79%)	5 (5=80-100%)	5 (5=80-100%)	5 (5=80-100%)	5 (5=80-100%)	5 (5=80-100%)	5 (5=80-100%)	4 (4=60-79%)	5 (5=80-100%)	5 (5=80-100%)	5 (5=80-100%)	5 (5=80-100%)
CCCn1nnnc1NC(=O)c1nn2cnn(CCC)c2nc1=O [Compound 1.031]	5 (5=80-100%)	5 (5=80-100%)	5 (5=80-100%)	5 (5=80-100%)	5 (5=80-100%)	5 (5=80-100%)	5 (5=80-100%)	5 (5=80-100%)	5 (5=80-100%)	4 (4=60-79%)	5 (5=80-100%)	5 (5=80-100%)
CCn1nnnc1NC(=O)c1nn2cnn(-c3cccc(Cl)c3)c2nc1=O [Compound 1.033]	4 (4=60-79%)	5 (5=80-100%)	5 (5=80-100%)	5 (5=80-100%)	5 (5=80-100%)	2 (2=20-39%)	5 (5=80-100%)	5 (5=80-100%)	5 (5=80-100%)	4 (4=60-79%)	5 (5=80-100%)	5 (5=80-100%)
CCn1nnnc1NC(=O)c1nn2cnn(-c3ccc(OC)cc3)c2nc1=O [Compound 1.034]	4 (4=60-79%)	5 (5=80-100%)	5 (5=80-100%)	5 (5=80-100%)	5 (5=80-100%)	3 (3=40-59%)	5 (5=80-100%)	4 (4=60-79%)	5 (5=80-100%)	5 (5=80-100%)	5 (5=80-100%)	5 (5=80-100%)
CCCn1nnnc1NC(=O)c1nn2cnn(-c3ccc(OC)cc3)c2nc1=O [Compound 1.035]	5 (5=80-100%)	5 (5=80-100%)	4 (4=60-79%)	4 (4=60-79%)	5 (5=80-100%)	5 (5=80-100%)	5 (5=80-100%)	5 (5=80-100%)	5 (5=80-100%)	5 (5=80-100%)	5 (5=80-100%)	5 (5=80-100%)
CCCn1nnnc1NC(=O)c1nn2cnn(-c3cccc(OC)c3)c2nc1=O [Compound 1.036]	5 (5=80-100%)	4 (4=60-79%)	5 (5=80-100%)	5 (5=80-100%)	5 (5=80-100%)	4 (4=60-79%)	5 (5=80-100%)	5 (5=80-100%)	5 (5=80-100%)	5 (5=80-100%)	5 (5=80-100%)	5 (5=80-100%)
CCn1nnnc1NC(=O)c1nn2cnn(-c3ccc(F)cc3)c2nc1=O [Compound 1.037]	4 (4=60-79%)	5 (5=80-100%)	5 (5=80-100%)	5 (5=80-100%)	5 (5=80-100%)	5 (5=80-100%)	5 (5=80-100%)	4 (4=60-79%)	4 (4=60-79%)	5 (5=80-100%)	5 (5=80-100%)	5 (5=80-100%)
